Numbers after ± are expanded uncertainties.
Key:
[1] = 100 kPa, Liquid; for viscosity: Concentric cylinders viscometry; for mass density: Vibrating tube method
[2] = xn = mol fraction of the nth substance listed; details: 100 kPa, Liquid, x1 = 1; for viscosity: Concentric cylinders viscometry; for mass density: Vibrating tube method

SMILES: CCOP(=O)([O-])OCC.CCn1cc[n+](C)c1 [1-ethyl-3-methylimidazolium diethyl phosphate]
- viscosity ([1]; 293.15 K): 540 ± 30 mPa·s
- mass density ([1]; 293.15 K): 1151.2 ± 1.2 kg/m3
- viscosity ([1]; 303.15 K): 274 ± 15 mPa·s
- mass density ([1]; 303.15 K): 1144.2 ± 1.2 kg/m3
- viscosity ([1]; 313.15 K): 154 ± 8 mPa·s
- mass density ([1]; 313.15 K): 1137.4 ± 1.2 kg/m3
- viscosity ([1]; 323.15 K): 94 ± 4.4 mPa·s
- mass density ([1]; 323.15 K): 1130.7 ± 1.2 kg/m3
- viscosity ([1]; 333.15 K): 61.2 ± 2.8 mPa·s
- mass density ([1]; 333.15 K): 1124.1 ± 1.2 kg/m3
- viscosity ([1]; 343.15 K): 42.1 ± 1.9 mPa·s
- mass density ([1]; 343.15 K): 1117.5 ± 1.2 kg/m3
- viscosity ([1]; 353.15 K): 30.2 ± 1.3 mPa·s
- mass density ([1]; 353.15 K): 1111 ± 1.1 kg/m3
- viscosity ([1]; 363.15 K): 22.5 ± 1 mPa·s
- mass density ([1]; 363.15 K): 1104.5 ± 1.1 kg/m3
- viscosity ([1]; 373.15 K): 17.3 ± 0.7 mPa·s
- mass density ([1]; 373.15 K): 1098.2 ± 1.1 kg/m3

SMILES: O [water]
- viscosity ([1]; 293.15 K): 1 ± 0.04 mPa·s
- mass density ([1]; 293.15 K): 1000.1 ± 0.5 kg/m3
- viscosity ([1]; 303.15 K): 0.805 ± 0.034 mPa·s
- mass density ([1]; 303.15 K): 998 ± 0.5 kg/m3
- viscosity ([1]; 313.15 K): 0.651 ± 0.027 mPa·s
- mass density ([1]; 313.15 K): 994.3 ± 0.5 kg/m3
- viscosity ([1]; 323.15 K): 0.544 ± 0.023 mPa·s
- viscosity ([1]; 333.15 K): 0.472 ± 0.02 mPa·s
- mass density ([1]; 333.15 K): 985.2 ± 0.6 kg/m3
- viscosity ([1]; 343.15 K): 0.417 ± 0.018 mPa·s
- mass density ([1]; 343.15 K): 979.6 ± 0.6 kg/m3
- viscosity ([1]; 353.15 K): 0.342 ± 0.015 mPa·s
- mass density ([1]; 353.15 K): 973.3 ± 0.6 kg/m3

SMILES: C[S+](C)[O-] [dimethyl sulfoxide]
- viscosity ([1]; 293.15 K): 2.31 ± 0.09 mPa·s
- mass density ([1]; 293.15 K): 1101.2 ± 0.7 kg/m3
- viscosity ([1]; 303.15 K): 1.89 ± 0.08 mPa·s
- mass density ([1]; 303.15 K): 1091.2 ± 0.7 kg/m3
- viscosity ([1]; 313.15 K): 1.57 ± 0.06 mPa·s
- mass density ([1]; 313.15 K): 1081.1 ± 0.7 kg/m3
- viscosity ([1]; 323.15 K): 1.33 ± 0.05 mPa·s
- mass density ([1]; 323.15 K): 1071.1 ± 0.7 kg/m3
- viscosity ([1]; 333.15 K): 1.15 ± 0.05 mPa·s
- mass density ([1]; 333.15 K): 1061.2 ± 0.7 kg/m3
- viscosity ([1]; 343.15 K): 1.01 ± 0.04 mPa·s
- mass density ([1]; 343.15 K): 1051.3 ± 0.7 kg/m3
- viscosity ([1]; 353.15 K): 0.893 ± 0.037 mPa·s
- mass density ([1]; 353.15 K): 1041.1 ± 0.7 kg/m3
- viscosity ([1]; 363.15 K): 0.799 ± 0.033 mPa·s
- mass density ([1]; 363.15 K): 1031.3 ± 0.7 kg/m3
- viscosity ([1]; 373.15 K): 0.721 ± 0.03 mPa·s
- mass density ([1]; 373.15 K): 1021.4 ± 0.7 kg/m3

SMILES: O [water] + CCOP(=O)([O-])OCC.CCn1cc[n+](C)c1
- viscosity ([2]; 293.15 K): 1 ± 0.04 mPa·s
- mass density ([2]; 293.15 K): 1000.1 ± 0.5 kg/m3
- viscosity ([2]; 303.15 K): 0.805 ± 0.034 mPa·s
- mass density ([2]; 303.15 K): 998 ± 0.5 kg/m3
- viscosity ([2]; 313.15 K): 0.651 ± 0.027 mPa·s
- mass density ([2]; 313.15 K): 994.3 ± 0.5 kg/m3
- viscosity ([2]; 323.15 K): 0.544 ± 0.023 mPa·s
- viscosity ([2]; 333.15 K): 0.472 ± 0.02 mPa·s
- mass density ([2]; 333.15 K): 985.2 ± 0.6 kg/m3
- viscosity ([2]; 343.15 K): 0.417 ± 0.018 mPa·s
- mass density ([2]; 343.15 K): 979.6 ± 0.6 kg/m3
- viscosity ([2]; 353.15 K): 0.342 ± 0.015 mPa·s
- mass density ([2]; 353.15 K): 973.3 ± 0.6 kg/m3

Reference: the NIST ThermoML archive (doi:10.1021/acs.jced.7b00788)
